Experiment: solvent given as SMILES

Work on `c1ccc(N(c2ccccc2)c2ccc(-c3ncc(-c4ccc(-c5ccc(-c6cnc(-c7ccc(N(c8ccccc8)c8ccccc8)cc7)s6)s5)s4)s3)cc2)cc1` yielded an emission maximum (in CO) of 509 nm.

`Cc1ccc(C#Cc2ccc3ccc(=O)oc3c2)cc1` gave an emission maximum (in CC#N) of 440 nm.

`COC(=O)C1=C(C(=O)OC)C2(c3ccccc3-c3ccccc32)[C@@H](c2ccc(C)cc2)C=C2c3cc(OC)c(OC)cc3CCN21` showed an emission maximum (in ClCCl) of 425 nm.

With `Cn1ccc(-c2nc3ccccc3nc2/C=C/N2CCCC2)c1` the emission maximum (in CC#N) was 579.08 nm.

In the case of `Cc1cc2ccccc2c2c1c1ccccc1n2-c1ccc(N(c2ccccc2)c2ccccc2)cc1`, the emission maximum (in CCOC(C)=O) was 386 nm, the emission maximum (in CS(C)=O) was 428 nm and the emission maximum (in ClCCl) was 404 nm.

Work on `CCOC(=O)c1cc(C(=O)OCC)c2cc(OC)ccc2n1` yielded an emission maximum (in CCO) of 441 nm.

`N#Cc1ccc(/C=C/C(F)(F)F)c(N)c1` showed an emission maximum (in C1CCOC1) of 439 nm.

`CCCCC(CC)Cn1c2ccc(C(=C(C#N)C#N)c3ccccc3)cc2c2c(-c3ccc(Br)cc3)c3c(c(-c4ccc(Br)cc4)c21)c1cc(C(=C(C#N)C#N)c2ccccc2)ccc1n3CC(CC)CCCC` (configuration not stated) showed an emission maximum (in C1CCOC1) of 584 nm, an emission maximum (in CC#N) of 536 nm and an emission maximum (in CCO) of 576 nm. For the same compound, the emission maximum (in CCOC(C)=O) was 582 nm, the emission maximum (in CN(C)C=O) was 535 nm and the emission maximum (in Cc1ccccc1) was 540 nm. The emission maximum (in ClCCl) was 597 nm and the emission maximum (in c1ccccc1) was 543 nm.

`Cc1ccc2nc3c(nc2c1)c(-c1ccccc1)nn3C` gave an emission maximum (in C1CCCCC1) of 472 nm, an emission maximum (in C1CCOC1) of 500 nm and an emission maximum (in CC#N) of 516 nm.

`COc1cc(OC)cc(C2=C3C(C)=C(I)C(C)=[N+]3[B-](F)(F)n3c(/C=C/c4c[nH]c5ccccc45)c(I)c(C)c32)c1` showed an emission maximum (in C1CCOC1) of 668 nm, an emission maximum (in CS(C)=O) of 676 nm and an emission maximum (in ClCCl) of 661 nm.

`COc1ccc(C2=[N+]3C(=Nc4c(-c5ccccc5)cc(-c5ccc(OC)cc5)n4[B-]3(F)F)C(c3ccccc3)=C2)cc1` showed an emission maximum (in ClC(Cl)Cl) of 715 nm and an emission maximum (in ClCCl) of 715 nm.

Compound `COc1ccccc1C1=[N+]2C(=Nc3c(-c4ccccc4)cc(-c4ccccc4OC)n3[B-]2(F)F)C(c2ccccc2)=C1` has an emission maximum (in Cc1ccccc1) of 688 nm.

Work on `CCOC(=O)c1c2c3c(ccc(C)c3c3cc4c(cc13)[Si](C)(C)O[Si]4(C)C)N(C)C2=O` yielded an emission maximum (in CC#N) of 413 nm.

For `CC(C)(C)c1ccc2cc3c4cccc5cccc(c6cc(C(C)(C)C)cc(c2c1)c63)c54`, the emission maximum (in CC1CCCCC1) was 445 nm.

In the case of `COc1cc(/C=C/c2ccccn2)c(OC)cc1C=O`, the emission maximum (in C1CCOC1) was 446 nm, the emission maximum (in CC#N) was 458 nm and the emission maximum (in CN(C)C=O) was 456 nm. It also gave an emission maximum (in Cc1ccccc1) of 444 nm and an emission maximum (in ClCCl) of 455 nm.

In the case of `CCN(CC)c1ccc(/C=C2\CC/C(=C\c3ccc(N(c4ccc(/C=C5\CC/C(=C\c6ccc(N(CC)CC)cc6)C5=C(C#N)C#N)cc4)c4ccc(/C=C5\CC/C(=C\c6ccc(N(CC)CC)cc6)C5=C(C#N)C#N)cc4)cc3)C2=C(C#N)C#N)cc1`, the emission maximum (in CN(C)C=O) was 720 nm.

For `F[B-]1(F)n2c(cc3sc4ccccc4c32)C(c2ccc(I)cc2)=C2C=c3sc4ccccc4c3=[N+]21`, the emission maximum (in ClC(Cl)Cl) was 673 nm.

Work on `CCCCCCOc1cc(C=C2C(=O)c3ccccc3C2=O)c(OCCCCCC)cc1C=C1C(=O)c2ccccc2C1=O` yielded an emission maximum (in ClCCl) of 622 nm.

In the case of `CCCCCCN1C(=O)c2cccc3c(-c4ccc(-c5ccc6c7c(cccc57)C(=O)N(CCCCCC)C6=O)s4)ccc(c23)C1=O`, the emission maximum (in ClC(Cl)Cl) was 495 nm.

Work on `Cc1ccc(/C(C#N)=C/c2cc(/C=C(\C#N)c3ccc(C)cc3)c(-c3ccc(N(c4ccccc4)c4ccccc4)cc3)cc2-c2ccc(N(c3ccccc3)c3ccccc3)cc2)cc1` yielded an emission maximum (in C1CCCCC1) of 453 nm, an emission maximum (in C1CCOC1) of 538 nm and an emission maximum (in CCCCCC) of 453 nm. For the same compound, the emission maximum (in CCOC(C)=O) was 533 nm, the emission maximum (in Cc1ccccc1) was 480 nm and the emission maximum (in ClC(Cl)Cl) was 517 nm. It also gave an emission maximum (in ClCCl) of 552 nm.

`C[Si](C)(C)c1cc2c(cc3ccc4cccc5ccc2c3c45)[nH]1` showed an emission maximum (in CCOC(C)=O) of 406 nm.

`N#Cc1ccc2nc3c(=O)[nH]c(=O)[nH]c3nc2c1` showed an emission maximum (in ClCCCl) of 430 nm.

For `CCOC(=O)c1c(-c2c(Cl)c3cc(C)ccc3oc2=O)nn(-c2cccc(Cl)c2)c1C(=O)OCC`, the emission maximum (in ClCCl) was 420 nm.

`O=P1(c2ccccc2)c2ccc(N3c4ccccc4Oc4ccccc43)cc2-c2cc(N3c4ccccc4Oc4ccccc43)ccc21` gave an emission maximum (in Cc1ccccc1) of 535 nm and an emission maximum (in c1ccc2c(c1)c1ccccc1n2-c1ccc(-c2ccc(-n3c4ccccc4c4ccccc43)cc2)cc1) of 551 nm.

Work on `COc1ccc(-c2ncccn2)cc1` yielded an emission maximum (in ClCCl) of 356 nm.

In the case of `c1cc2cc(c1)c1cccc(c1)c1ccc3ccc4ccc(cc4c3c1)c1cccc(c1)c1cccc2c1`, the emission maximum (in Cc1ccccc1) was 382 nm.

For `CC(C)(C)c1ccc(-c2cc(-c3ccc(-c4cc(-c5ccc(C(C)(C)C)cc5)c(C(=O)NCc5ccccc5)s4)s3)sc2C(=O)NCc2ccccc2)cc1`, the emission maximum (in ClCCl) was 449 nm.

In the case of `C#CCn1c2ccccc2c2cc(/C=C/C3=[N+]4C(=C(c5ccc(I)cc5)c5c(C)c(Cl)c(/C=C/c6ccc7c(c6)c6ccccc6n7CC#C)n5[B-]4(F)F)C(C)=C3Cl)ccc21`, the emission maximum (in CC#N) was 731 nm, the emission maximum (in CS(C)=O) was 749 nm and the emission maximum (in ClC(Cl)Cl) was 730 nm.

Work on `CCC1=C(C)C(=O)n2c1cc1c(C)c(CCC(=O)OC)c(C)n1c2=O` yielded an emission maximum (in CO) of 530 nm, an emission maximum (in CS(C)=O) of 505 nm and an emission maximum (in ClC(Cl)Cl) of 495 nm. The emission maximum (in c1ccccc1) was 470 nm.

In the case of `CN1C(=CC2=C([O-])C(=CC3=[N+](C)c4ccccc4C3(C)C)C2=C2C(=O)NC(=O)NC2=O)C(C)(C)c2ccccc21`, the emission maximum (in ClC(Cl)Cl) was 665 nm.

`N#Cc1ccc(C#Cc2ccc(C#Cc3ccccc3C#N)cc2C#N)cc1` gave an emission maximum (in ClC(Cl)Cl) of 370 nm.

With `COc1c2ccccc2c(OC)c2c1c1cc(Cl)ccc1n2C` the emission maximum (in C1CCCCC1) was 421 nm, the emission maximum (in CC#N) was 432 nm and the emission maximum (in CO) was 428 nm. For the same compound, the emission maximum (in ClCCl) was 431 nm.

Compound `CCC1(CC)c2cc(C=C(C#N)C#N)ccc2-c2ccc(N(C)C)cc21` has an emission maximum (in C1CCCCC1) of 528 nm, an emission maximum (in CC#N) of 688 nm and an emission maximum (in CCO) of 677 nm. It also gave an emission maximum (in CCOCC) of 579 nm, an emission maximum (in CS(C)=O) of 711 nm and an emission maximum (in ClCCl) of 631 nm. It also gave an emission maximum (in c1ccccc1) of 560 nm.

Compound `COc1ccc(-c2ccc(-c3ccc(C#N)s3)s2)cc1` has an emission maximum (in C1CCCCC1) of 445 nm, an emission maximum (in C1COCCO1) of 455 nm and an emission maximum (in CC#N) of 476 nm. For the same compound, the emission maximum (in CC(C)O) was 471 nm, the emission maximum (in CCCCO) was 471 nm and the emission maximum (in CCO) was 474 nm. For the same compound, the emission maximum (in CCOC(C)=O) was 461 nm, the emission maximum (in CN(C)C=O) was 479 nm and the emission maximum (in CO) was 476 nm. It also gave an emission maximum (in CS(C)=O) of 484 nm, an emission maximum (in Cc1ccccc1) of 450 nm and an emission maximum (in ClC(Cl)Cl) of 465 nm. The emission maximum (in ClCCl) was 468 nm and the emission maximum (in O) was 529 nm.

For `Cc1cc(C2=C(c3cc(C)sc3C)P(=O)(c3ccccc3)c3ccccc32)c(C)s1` (configuration not stated), the emission maximum (in C1CCOC1) was 468 nm.

Work on `O=C1CC(=O)Nc2cc(C(=O)O)ccc2N1` yielded an emission maximum (in CS(C)=O) of 407 nm.

Compound `CN(C)c1cccc2c1ccc1c(=O)oc(-c3ccc(C(F)(F)F)cc3)cc12` has an emission maximum (in CC(C)=O) of 611 nm, an emission maximum (in CCCCCCCCO) of 585 nm and an emission maximum (in CCCCO) of 586 nm. The emission maximum (in CCCO) was 591 nm, the emission maximum (in CCO) was 602 nm and the emission maximum (in CCOC(C)=O) was 578 nm. For the same compound, the emission maximum (in CN(C)C=O) was 614 nm, the emission maximum (in CO) was 612 nm and the emission maximum (in ClC(Cl)Cl) was 538 nm.

`Cc1cc(C)n2c1C=C1c3ccccc3C(c3[nH]c4ccccc4c3C)=[N+]1[B-]2(F)F` gave an emission maximum (in C1CCOC1) of 628 nm, an emission maximum (in CC#N) of 623 nm and an emission maximum (in CCCCCC) of 626 nm. The emission maximum (in CO) was 624 nm, the emission maximum (in Cc1ccccc1) was 636 nm and the emission maximum (in ClCCl) was 631 nm.

Work on `CCC1=C(C)C2=Cc3c4ccccc4c4n3[B-](c3ccncc3)(Oc3ccccc3-4)[N+]2=C1C` (configuration not stated) yielded an emission maximum (in CC#N) of 633 nm, an emission maximum (in CCCCCC) of 636 nm and an emission maximum (in Cc1ccccc1) of 639 nm. It also gave an emission maximum (in ClCCl) of 639 nm.

With `O=Cc1cc2c(cc3ccc4cccc5ccc2c3c45)[nH]1` the emission maximum (in CCOC(C)=O) was 438 nm.

With `COc1cc2c(cc1-c1ccsc1)Cc1c3c(c4c(c1-2)-c1cc(OC)c(-c2ccsc2)cc1C4)C(=O)N(CCC(C)C)C3=O` the emission maximum (in C1CCOC1) was 487 nm.

`c1ccc2c(c1)c1ccccc1n2-c1ccc2c(c1)c1ccccc1n2-c1ccc(-n2c3ccccc3c3cc(-n4c5ccccc5c5ccccc54)ccc32)cc1` gave an emission maximum (in C1CCOC1) of 372 nm, an emission maximum (in CC(C)=O) of 379 nm and an emission maximum (in Cc1ccccc1) of 372 nm. It also gave an emission maximum (in ClCCl) of 383 nm.

`CC(C)(C)c1ccc2c(c1)c1cc(C(C)(C)C)ccc1n2-c1ccccc1-c1nc(-c2ccccc2P(=O)(c2ccccc2)c2ccccc2)nc(-c2ccccc2P(=O)(c2ccccc2)c2ccccc2)n1` gave an emission maximum (in C1CCOC1) of 515.1 nm, an emission maximum (in CC#N) of 548.81 nm and an emission maximum (in CC(C)=O) of 532.75 nm. The emission maximum (in CN(C)C=O) was 539.75 nm, the emission maximum (in Cc1ccccc1) was 498.41 nm and the emission maximum (in ClC(Cl)Cl) was 511.13 nm. The emission maximum (in ClCCl) was 526.23 nm and the emission maximum (in O=P(c1ccccc1)(c1ccccc1)c1ccccc1Oc1ccccc1P(=O)(c1ccccc1)c1ccccc1) was 504 nm.

In the case of `CCc1c(CC)c2n(c1C)[B-](F)(F)[N+]1=C(C)c3cc4c(cc3C1=C2)=[N+]1C(=Cc2c(CC)c(CC)c(C)n2[B-]1(F)F)C=4C`, the emission maximum (in ClC(Cl)Cl) was 774 nm.

For `CCOC(=O)c1ccc(C2CC(c3cccc4ccccc34)=NN2c2ccc(OC)cc2)cc1` (configuration not stated), the emission maximum (in ClCCl) was 505 nm.

`COc1ccc2c(c1)CCc1c(-c3ccccc3)c3n(c1-2)[B-](F)(F)[N+]1=c2ccc4ccccc4c2=C(c2ccccc2)C1=N3` gave an emission maximum (in ClC(Cl)Cl) of 730 nm.

With `Cc1ccc(-c2cnc3nn4ccccc4c3n2)cc1` the emission maximum (in C1CCOC1) was 450 nm.

With `COc1ccc2c(c1)[nH]c1c3[nH]c4cc(OC)ccc4c3c3nsnc3c21` the emission maximum (in CN(C)C=O) was 544 nm, the emission maximum (in Cc1ccccc1) was 501 nm and the emission maximum (in ClCCl) was 540 nm.

In the case of `CCCCN1C(=O)C2=C(c3ccc(Br)cc3)[N-]C(=O)C2=C1c1ccc(Br)cc1`, the emission maximum (in ClCCl) was 613 nm.

Work on `Cc1cccc(C)c1/C=C/c1nc(N2CCOCC2)c2c([n+]1[O-])CCCC2` yielded an emission maximum (in ClCCl) of 536 nm.

Work on `CCN(CC)c1ccc(-c2nc(Oc3ccc(-c4nc5ccccc5[nH]4)cc3)nc(Oc3ccc(-c4nc5ccccc5[nH]4)cc3)n2)cc1` yielded an emission maximum (in CN(C)C=O) of 431 nm.

Compound `FC(F)(F)c1c(-n2c3ccccc3c3ccccc32)c(-n2c3ccccc3c3ccccc32)cc(-n2c3ccccc3c3ccccc32)c1-n1c2ccccc2c2ccccc21` has an emission maximum (in ClCCl) of 440 nm.

From the Deep4Chem optical property database
